The values that follow come from paper PMC5430962, “Retro-inverso Urokinase Receptor Antagonists for the Treatment of Metastatic Sarcomas” (Scientific Reports, 2017).

Where a SMILES comes first, the peptide text is derived from it. Where no end group is shown, it is not given here. [ ]: non-standard residue; d: D form. The star is where a group is joined. Hydrocinnamoyl = O=C(CCc1ccccc1)*; PhAc = O=C(Cc1ccccc1)*; Aib = CC(C)(N)C(=O)O

For one series, the system named is monocyte. Particulars: read-out: IC50 of inhibition of fMLF-induced monocyte locomotion; cited from earlier work. The text has this:
The uPAR domains DI-DIII are connected by short linker regions. DI-DIII pack together into a concave structure that shifts to an active conformation upon binding to uPA[21], [22]. The linker between DI-DII is more flexible than that between the DII‒DIII domains[23]–[25], and includes the protease-sensitive crucial signaling region, uPAR84–95. In the form of a synthetic peptide, the minimal 88–92 sequence (Ser^88-Arg-Ser-Arg-Tyr^92, SRSRY) retains chemotactic activity and triggers directional cell migration and angiogenesis in vitro and in vivo [15]–[17], [26], [27]. Mechanistically, these ...

For series [1] the following is noted: cited from earlier work. The text has this:
(§1) Following on this observation, we developed a series of linear peptides that inhibit the uPAR/FPR1 interaction and reduce to basal levels directional cell migration, invasion and angiogenesis[37]–[40]. While providing proof-of-principle for the strategy, none of these peptides represents an ideal lead molecule: many of these peptides are unstable to enzymatic digestion in human serum, which limits their half-life in vivo, whereas ...

The next series has as its system sarcoma cell. Particulars: cited from earlier work.
Excerpt: as §1

The next series concerns GFP-tagged Sarc cells. The experiment in a line: Growth and spread of subcutaneous GFP-tagged Sarc tumors in nude mice. The format is in vivo, Foxn1nu/nu female nude mice. Particulars: 6 mg/Kg i.p. every day for 12 days, five mice per group. The protocol:
To evaluate the effect of RI-3 on tumor growth and vascularization, Sarc cells were injected, as a single-cell suspension (1 × 10^6 cells in 100 µl of sterile PBS, 97% viability), subcutaneously in the flanks of sixteen six-eight weeks old, Foxn1nu/nu female nude mice (Harlan). Animals were randomized into two 8-mice groups with the treatment group receiving 6 mg/kg RI-3 by intra-peritoneal injection every 24 hr, and the control group receiving an equivalent injected volume of vehicle (PBS) only. Time-dependent average weight was monitored every two days. The length and the width of tumors were measured at different time points with a calliper and volumes were calculated using the formula: ½ × (width)[2] × length (mm). After 10 days, blood samples (at least 500 µL/mouse) from the retro-orbital venous plexus of mice anesthetized with 1% isoflurane were collected using a heparinized capillary tube and processed for determination of the Circulating Tumor Cells (CTCs). Then, the animals were sacrificed, the excised tumors were fixed in buffered formalin and processed for paraffin sectioning. Tumor vascularization was assessed by counting vascular channels harbouring red blood cells on CD31 immuno-stained sections in 5 randomly chosen fields per section, in at least two sections per tumor at x 200 as described. Two additional experiments were carried out with the same experimental design by injecting GFP-tagged Sarc cells (1 × 10^6 cells/mouse) subcutaneously in the flanks of twenty-five six-eight weeks old, Foxn1nu/nu female nude mice (Harlan). Animals were treated with 6 mg/kg RI-3, 6 mg/kg RERF or vehicle by intra-peritoneal injection every 24 hr for 10 or 12 days. Tumor growth and the appearance of positive tumor lesions near tumors and in lungs were monitored as brightly visualized by GFP fluorescence with a MacroFluo fluorescence stereomicroscope (Leica). We searched for the presence of GFP-positive nodules on the entire surface of freshly isolated lungs. Lungs were also sliced at approximately 3-mm thickness to examine the parenchyma in depth, and the positive nodules were acquired at higher magnification.

Series [2] relates to HT1080 cells. Nature of the series: HT1080 cell migration toward peptide as chemoattractant, xCELLigence RTCA. The format is cell-based, human. The settings on record: migration toward 10 nM peptide, monitored 18 hr, quadruplicate. As for the experimental part: The kinetics of cell migration was monitored in real time using the xCELLigence Real Time Cell Analysis (RTCA) technology (Acea Bioscience) as described, [80]. For these experiments we used CIM-plates which are provided with interdigitated gold microelectrodes on the bottom side of a filter membrane interposed between a lower and an upper compartment. The lower chamber was filled with serum-free medium or growth medium with/without RI peptides. Cells (2 × 10^4 cells/well) were seeded on filters in serum-free medium. Cell migration was monitored for 18 hr, and each experiment was performed at least twice in quadruplicate.

For series [3], the target named is T1, FPR1 (Homo sapiens, UniProt P21462).
T1 construct: expressed in transfected cells; host or cells: rat basophilic leukaemia RBL-2H3/ETFR cells (gift of F. Blasi)
T1 sequence (P21462 1-350): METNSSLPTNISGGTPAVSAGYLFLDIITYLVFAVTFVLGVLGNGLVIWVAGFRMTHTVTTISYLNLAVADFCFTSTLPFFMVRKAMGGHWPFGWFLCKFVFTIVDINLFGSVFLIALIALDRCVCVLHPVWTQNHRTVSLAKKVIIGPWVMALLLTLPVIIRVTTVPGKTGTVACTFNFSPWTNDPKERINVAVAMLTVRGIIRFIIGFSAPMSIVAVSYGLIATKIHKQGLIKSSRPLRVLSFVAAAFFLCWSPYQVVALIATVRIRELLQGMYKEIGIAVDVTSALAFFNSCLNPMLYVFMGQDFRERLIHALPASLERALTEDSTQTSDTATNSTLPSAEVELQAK
Nature of the series: Ligand binding assay: FITC-fMLF binding to RBL-2H3/ETFR cells. Particulars: 100 nM unlabeled peptide 60 min at 4 °C, then 10 nM FITC-fMLF 60 min at 4 °C; fluorescence plate reader. The protocol:
RBL-2H3 cells, RBL-2H3/ETFR cells stably expressing FPR1 (1.5 × 10^6 cells/sample) were pre-incubated with diluents or the indicated unlabeled peptides for 60 min at 4 °C, extensively rinsed with phosphate buffer saline (PBS), exposed to 10 nM FITC-fMLF (Molecular Probes) in PBS for additional 60 min at 4 °C and again rinsed with PBS. Cell-associated fluorescence was quantitated with the fluorescence plate reader Victor 3 (Perkin Elmer) using 485 nm excitation and 535 nm emission filters. The experiments were performed three times in triplicate.

In series [4] the target is T1, FPR1. The experiment in a line: Agonist-dependent FPR1 internalization, fluorescence microscopy in RBL-2H3/ETFR cells. The format is cell-based. Particulars: 100 nM peptide 30 min at 37 °C, then 10 nM FITC-fMLF 30 min at 37 °C; confocal microscopy. As for the experimental part:
Cells grown on glass slides to semi-confluence were exposed to diluents or the indicated unlabeled peptides for 30 min at 37 °C, then to 10 nM FITC-fMLF in PBS for additional 30 min at 37 °C and extensively rinsed with PBS. To visualize the cytoskeleton, the cells were fixed with 2.5% formaldehyde, permeabilized with 0.1% Triton X-100 for 10 min at 4 °C, and incubated with 0.1 µg/mL rhodamine-conjugated phalloidin (Sigma-Aldrich) for 40 min. In all cases, coverslips were mounted using 20% (w/v) Mowiol, visualized with a Zeiss 510META-LSM microscope (Carl Zeiss), and z-series were collected at 0.20 µm intervals.

The subject of series [5] is HT1080 cells. Nature of the series: HT1080 cell migration toward 10% FBS in Boyden chambers. Particulars: 10 nM peptide plus 10% FBS, 4 hr, means of three independent experiments in triplicate. The format is cell-based, human. As for the experimental part: (§2) Cell migration in Boyden chambers was carried out for 4 hr at 37 °C in humidified air with 5% CO2, as described. Briefly, cell suspension (1 × 10^5 viable cells/mL serum free medium) was seeded in each upper chamber. Lower chambers were filled with DMEM alone, DMEM containing RI peptides, 10 nM fMLF, or 10% FBS with/without RI peptides. The two compartments were separated by 8 μm pore size polycarbonate filters (Neuroprobe) coated with 2.5 µg/mL vitronectin (Corning). For the invasion assays, 8 μm pore size filters were coated with 50 μg/filter matrigel (BD Biosciences) as previously described[40] and cells (3 × 10^4 viable cells/well) were allowed to invade matrigel for 6 hr at 37 °C, 5% CO2. In all cases, at the end of the assay, cells on the lower filter surface were fixed with ethanol, stained with haematoxylin and 10 random fields/filter were counted at 200× magnification. Each experiment was performed three times in triplicate.

The subject of series [6] is HT1080 cells. Nature of the series: HT1080 matrigel invasion toward 10% FBS in Boyden chambers. Format: cell-based, human. The settings on record: 10 nM peptide plus 10% FBS, 6 hr, means of three independent experiments in triplicate. As for the experimental part:
as §2

A word on the IC50: it is the midpoint of a concentration-inhibition curve. Take “cyclized SRSRY: cyclized form of the uPAR 88–92 sequence Ser-Arg-Ser-Arg-Tyr (also: cyclized, mode not given here)”: the IC50 in the series with monocyte is 0.01 nM.
As to “Ac-L-Arg-Aib-L-Arg-D-Ca(Me)Phe-NH2 [UPARANT]”, the “stability in blood and resistance to enzymatic proteolysis” value in [1] was “stable in blood and displays prolonged resistance to enzymatic proteolysis”. In addition, the “inhibition of sarcoma cell invasion in a mouse model of lung colonization” value in the series on sarcoma cell is recorded as “does not inhibit”.
`CC(=O)N[C@@H](CCCNC(=N)N)C(=O)N[C@@H](CCC(=O)O)C(=O)N[C@@H](CCCNC(=N)N)C(=O)N[C@@H](Cc1ccccc1)C(N)=O` [RERF, reference compound] (Ac-RERF-NH2): the “changes in body weight” value in the series with GFP-tagged Sarc cells is recorded as “did not cause changes in body weight”.
As to “N-formyl-Met-Leu-Phe [fMLF, N-formyl-methionyl-leucyl-phenylalanine, reference compound]”, the “ability to trigger cell migration” value in the series on HT1080 cells [2] is listed as “elicited a considerable cell migration”. In addition, the “effect on binding of FITC-fMLF to RBL-2H3/ETFR cells” value at FPR1 [3] is on record as “strongly reduced”. The “effect on agonist-dependent FPR1 internalization” value on FPR1 [4] was “prevented”.
As to `CC(C)(NC(=O)[C@@H](CCCNC(=N)N)NC(=O)CCc1ccccc1)C(=O)N[C@H](CCCNC(=N)N)C(N)=O` [RI-5, 3-Phenyl-Propionyl-D-Arg-Aib-D-Arg-NH2] (Hydrocinnamoyl-[dR]-[Aib]-[dR]-NH2), the “reduction of FBS-directed cell migration” value in the series on HT1080 cells [5] was 28%. The “reduction of the extent of cell invasion (matrigel)” value in the series with HT1080 cells [6] came out at 9%.
The matching figures for `CC(=O)N[C@H](Cc1ccc(O)cc1)C(=O)N[C@H](CCCNC(=N)N)C(=O)N[C@H](CO)C(=O)N[C@H](CCCNC(=N)N)C(N)=O` [RI-2, Ac-(D)-Tyr-(D)-Arg-(D)-Ser-(D)-Arg-NH2] (Ac-[dY][dR][dS][dR]-NH2): 29% and 23%.
The matching figures for `CC(=O)N[C@H](Cc1ccc(O)cc1)C(=O)N[C@H](CCCNC(=N)N)C(=O)N[C@H](CCC(=O)O)C(=O)N[C@H](CCCNC(=N)N)C(N)=O` [RI-1, Ac-(D)-Tyr-(D)-Arg-(D)-Glu-(D)-Arg-NH2] (Ac-[dY][dR][dE][dR]-NH2): 33% and 27%.
For the compound `CC(C)(NC(=O)[C@@H](CCCNC(=N)N)NC(=O)Cc1ccccc1)C(=O)N[C@H](CCCNC(=N)N)C(N)=O` [RI-4, Phenyl-Acetyl-D-Arg-Aib-D-Arg-NH2] (PhAc-[dR]-[Aib]-[dR]-NH2), in the series with HT1080 cells [5], the “reduction of FBS-directed cell migration” value came out at 37%. Besides, the “reduction of the extent of cell invasion (matrigel)” value in the series on HT1080 cells [6] amounted to 23%.
